Test results taken from BindingDB's records for doi:10.1016/s0960-894x(99)00041-4 (1999).
Numbered stars: 1 amine (or outer) side, 2 acyl side, 3 side chain; on linkers, the order of the positions; unused ones are H or OH. Bridge positions count the residues as written; N and C are the ends. Square brackets hold non-standard residues; d marks the D form. Peptide text beside a SMILES is read from it. X1 = O=C([C@@]1(N[*:1])CCc2ccccc2C1)[*:2]; Atc(2S) = N[C@@]1(C(=O)O)CCc2ccccc2C1; Mpa = O=C(O)CCS; Sar = CNCC(=O)O

Target: Oxytocin receptor (Cavia porcellus)
Test: Compound was evaluated for its dissociation constant (Kd) to guinea pig myometrial Oxytocin receptor

Row | Kd [nM] | Compound
1 | 38 | CC[C@H](C)[C@@H]1NC(=O)[C@@H](Cc2c[nH]c3ccccc23)NC(=O)CCSSC[C@@H](C(=O)N(C)CC(=O)N[C@@H](CCCNC(=N)N)C(=O)NCC(N)=O)NC(=O)[C@H](CC(N)=O)NC(=O)[C@H](CCC(N)=O)NC1=O [Mpa-D-Trp-lle-Gln-Asn-Cys-Sar-Arg-Gly-NH2]
2 | 370 | CC[C@H](C)[C@@H]1NC(=O)[C@@]2(CCc3ccccc3C2)NC(=O)CCSSC[C@@H](C(=O)N(C)CC(=O)N[C@@H](CCCN=C(N)N)C(=O)NCC(N)=O)NC(=O)[C@H](CC(N)=O)NC(=O)[C@H](CCC(N)=O)NC1=O ([Mpa][Atc(2S)]IQNC[Sar]RG-NH2; disulfide 1-6)
3 | 1920 | CC[C@H](C)[C@@H]1NC(=O)[C@]2(CCc3ccccc3C2)NC(=O)CCSSC[C@@H](C(=O)N(C)CC(=O)N[C@@H](CCCN=C(N)N)C(=O)NCC(N)=O)NC(=O)[C@H](CC(N)=O)NC(=O)[C@H](CCC(N)=O)NC1=O ([Mpa][X1]IQNC[Sar]RG-NH2; disulfide 1-6)
